These results are taken from ChEMBL document CHEMBL3351798, “Discovery of the CCR1 antagonist, BMS-817399, for the treatment of rheumatoid arthritis” (J Med Chem, 2014).

For orientation: bioavailability means dose-corrected exposure relative to a reference, in per cent. What is called IC50 is the concentration needed to halve the response being measured. As a reminder, the fraction unbound is free concentration divided by total concentration. A word on the EC50: it is the concentration needed to bring the measured effect to its halfway point.

Active and inactive are the calls of the source. No cut-off for these calls is given here.

Series [1] can be described thus: Bioavailability in cynomolgus monkey at 5 mg/kg. The format is ADME, organism-based, Macaca fascicularis. As to conditions: in vivo.
Series [2] concerns the target T1, C-C chemokine receptor type 1 (Homo sapiens, UniProt P32246).
T1 sequence (P32246 whole entry): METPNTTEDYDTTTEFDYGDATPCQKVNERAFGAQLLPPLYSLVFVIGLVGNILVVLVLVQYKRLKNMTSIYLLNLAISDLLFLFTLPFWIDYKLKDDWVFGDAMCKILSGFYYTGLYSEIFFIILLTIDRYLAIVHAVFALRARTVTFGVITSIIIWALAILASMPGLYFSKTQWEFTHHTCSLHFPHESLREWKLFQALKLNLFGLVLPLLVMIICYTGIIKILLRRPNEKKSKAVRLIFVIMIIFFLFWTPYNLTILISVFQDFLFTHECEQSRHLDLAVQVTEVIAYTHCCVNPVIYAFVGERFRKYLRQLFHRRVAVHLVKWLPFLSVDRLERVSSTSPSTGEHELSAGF
Description: Antagonist activity at CCR1 receptor in human whole blood assessed as blocked of LKN1-mediated CD11b upregulation preincubated for 1 hr.

Series [3] has as its target T2, C-X-C chemokine receptor type 2 (Homo sapiens) (UniProt P25025).
T2 sequence (whole entry): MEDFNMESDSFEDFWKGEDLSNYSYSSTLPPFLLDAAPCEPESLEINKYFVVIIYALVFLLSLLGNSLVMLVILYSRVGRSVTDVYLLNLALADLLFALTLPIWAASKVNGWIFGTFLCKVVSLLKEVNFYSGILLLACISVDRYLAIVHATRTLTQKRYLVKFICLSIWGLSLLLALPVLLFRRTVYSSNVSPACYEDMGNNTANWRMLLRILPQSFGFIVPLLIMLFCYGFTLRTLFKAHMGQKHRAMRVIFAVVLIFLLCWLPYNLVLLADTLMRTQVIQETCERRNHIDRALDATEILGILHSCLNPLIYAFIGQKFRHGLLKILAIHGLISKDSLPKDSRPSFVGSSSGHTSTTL
Briefly: Binding affinity to CXCR2 receptor (unknown origin).

A short description of series [4]: Unbound fraction in human serum. The format is ADME, cell-free.
Series [5] has as its target T3, C-C chemokine receptor type 4 (Homo sapiens) (UniProt P51679).
T3 sequence (whole entry): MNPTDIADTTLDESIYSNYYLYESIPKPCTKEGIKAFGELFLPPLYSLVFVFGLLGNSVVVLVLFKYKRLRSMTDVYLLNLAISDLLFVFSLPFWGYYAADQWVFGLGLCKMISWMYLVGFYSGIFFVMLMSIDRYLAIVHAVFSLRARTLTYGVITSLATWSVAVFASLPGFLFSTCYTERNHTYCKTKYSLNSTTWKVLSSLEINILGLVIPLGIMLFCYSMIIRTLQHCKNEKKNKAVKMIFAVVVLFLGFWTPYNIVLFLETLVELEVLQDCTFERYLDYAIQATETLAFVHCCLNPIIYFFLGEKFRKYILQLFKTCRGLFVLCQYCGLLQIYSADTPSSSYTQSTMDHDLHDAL
Briefly: Binding affinity to CCR4 receptor (unknown origin).

For series [6], the target named is C-C chemokine receptor type 2 (Homo sapiens) (UniProt P41597). Briefly: Binding affinity to CCR2 receptor (unknown origin).
Series [7] in a line: Displacement of [125I]hMIP-1alpha from rat CCR1. In general terms: In a radioligand displacement assay an active substance lowers the binding of a labelled ligand.
Series [8] is described as follows: Bioavailability in rat at 5 mg/kg. The format is ADME, organism-based. The settings on record: in vivo.
For series [9], the target named is T4, Nuclear receptor subfamily 1 group I member 2 (Homo sapiens, UniProt O75469).
T4 sequence (O75469 whole entry): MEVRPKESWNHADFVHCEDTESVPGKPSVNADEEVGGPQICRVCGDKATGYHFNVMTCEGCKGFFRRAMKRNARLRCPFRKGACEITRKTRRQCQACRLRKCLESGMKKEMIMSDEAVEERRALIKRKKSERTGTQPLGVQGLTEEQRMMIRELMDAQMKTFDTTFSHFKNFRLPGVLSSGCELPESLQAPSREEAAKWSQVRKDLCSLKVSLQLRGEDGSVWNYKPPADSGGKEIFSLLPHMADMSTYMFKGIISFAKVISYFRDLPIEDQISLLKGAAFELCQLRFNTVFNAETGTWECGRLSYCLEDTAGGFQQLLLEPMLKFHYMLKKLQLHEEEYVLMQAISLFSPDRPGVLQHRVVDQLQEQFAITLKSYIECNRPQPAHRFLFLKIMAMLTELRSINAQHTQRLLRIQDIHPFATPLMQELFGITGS
Briefly: Transactivation of human full-length PXR transfected in human HepG2 cells after 24 hrs by luciferase reporter gene assay. The format is cell-based. On the technique in general: In a reporter assay the amount or activity of a reporter protein is the signal.

Series [10] can be described thus: Metabolic stability in mouse liver microsomes assessed as compound remaining at 0.5 uM after 60 mins by UV-LC/MS analysis. As to conditions: read-out: Stability. The format is ADME. (In general: Liver microsomes are a subcellular fraction often used to study metabolism.)
The target of series [11] is T1, C-C chemokine receptor type 1. Briefly: Antagonist activity at CCR1 receptor in human whole blood assessed as blocked of MIP-1alpha-mediated CD11b upregulation preincubated for 1 hr.
Series [12] deals with T5, C-C chemokine receptor type 1 (Mus musculus, UniProt P51675).
T5 sequence (P51675 whole entry): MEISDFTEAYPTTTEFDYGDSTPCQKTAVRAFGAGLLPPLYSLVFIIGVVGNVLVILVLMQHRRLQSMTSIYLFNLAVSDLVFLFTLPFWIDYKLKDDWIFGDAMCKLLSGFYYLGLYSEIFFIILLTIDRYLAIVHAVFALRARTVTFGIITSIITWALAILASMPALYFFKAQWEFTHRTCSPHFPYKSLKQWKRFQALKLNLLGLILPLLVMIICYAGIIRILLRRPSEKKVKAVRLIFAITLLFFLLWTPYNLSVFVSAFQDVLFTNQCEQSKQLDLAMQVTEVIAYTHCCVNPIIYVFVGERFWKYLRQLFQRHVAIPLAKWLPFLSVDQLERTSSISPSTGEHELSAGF
Briefly: Displacement of [125I]hMIP-1alpha from mouse CCR1.

Another series is filed under the species Homo sapiens. Description: Inhibition of Ca+ channel (unknown origin).
The nature of series [13]: Bioavailability in dog at 5 mg/kg. The format is ADME, organism-based, Canis lupus familiaris. As to conditions: in vivo.
Series [14] concerns the target T6, C-X-C chemokine receptor type 5 (Homo sapiens) (UniProt P32302).
T6 sequence (whole entry): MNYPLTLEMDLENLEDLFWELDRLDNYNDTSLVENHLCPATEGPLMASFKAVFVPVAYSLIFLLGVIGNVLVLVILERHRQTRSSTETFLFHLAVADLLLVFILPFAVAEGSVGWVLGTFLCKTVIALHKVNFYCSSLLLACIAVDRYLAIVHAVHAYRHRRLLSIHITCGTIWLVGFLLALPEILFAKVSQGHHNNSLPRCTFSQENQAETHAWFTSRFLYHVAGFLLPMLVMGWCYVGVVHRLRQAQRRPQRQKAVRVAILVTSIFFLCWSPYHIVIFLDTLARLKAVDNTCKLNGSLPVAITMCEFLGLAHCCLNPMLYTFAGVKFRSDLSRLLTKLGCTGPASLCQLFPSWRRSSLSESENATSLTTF
Briefly: Binding affinity to CXCR5 receptor (unknown origin).

Series [15] can be described thus: Metabolic stability in rat liver microsomes assessed as compound remaining at 0.5 uM after 60 mins by UV-LC/MS analysis. The format is ADME. As to conditions: read-out: Stability.
Series [16] is described as follows: Metabolic stability in human liver microsomes assessed as compound remaining at 0.5 uM after 60 mins by UV-LC/MS analysis. The format is ADME. As to conditions: read-out: Stability.
A short description of series [17]: Displacement of [125I]hMIP-1alpha from monkey PBMC CCR1. Set-up: species or system Macaca mulatta.

Sequence of C-C chemokine receptor type 2 (Homo sapiens) (P41597 whole entry, looked up): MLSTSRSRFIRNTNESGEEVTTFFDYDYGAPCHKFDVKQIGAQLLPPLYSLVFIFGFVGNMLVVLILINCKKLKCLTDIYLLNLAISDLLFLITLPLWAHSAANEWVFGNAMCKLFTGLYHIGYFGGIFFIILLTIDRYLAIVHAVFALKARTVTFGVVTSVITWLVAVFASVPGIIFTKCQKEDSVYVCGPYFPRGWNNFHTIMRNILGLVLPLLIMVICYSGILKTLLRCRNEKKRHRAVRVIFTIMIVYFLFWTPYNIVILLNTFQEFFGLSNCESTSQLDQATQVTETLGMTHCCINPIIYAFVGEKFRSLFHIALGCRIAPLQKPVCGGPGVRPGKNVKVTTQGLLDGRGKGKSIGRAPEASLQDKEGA

On to `CC(C)[C@@H](NC(=O)NCC(C)(C)O)C(=O)N1CC[C@](O)(c2ccc(Cl)cc2)C(C)(C)C1` [BMS-817399], for which the bioavailability is 40% in series [1], 46% in series [8] and 100% in series [13]. The IC50 in series [2] is 42 nM; in series [7], above 50 µM; in series [11], 25 nM; in series [12], above 50 µM; in [17] it was above 50 µM. The result in series [3], in [5], in series [6] and in [14] was inactive. Besides, in series [4], the fraction unbound is 0.19. In addition, the EC50 in series [9] is above 25 µM. In addition, the remaining at 1 h, 0.5 µM in series [10] was 86%; in series [15], 74%; in series [16], 100%. Further, the inhibition entry in the series listed under Homo sapiens was “inactive”.
